Data from patent publication US8906904B2, “Alkoxy pyrazoles as soluble guanylate cyclase activators” (Boehringer Ingelheim International GmbH, priority 2012, dated 2014).
Converted amounts (≈) assume the structure as drawn.

Test: Assessment of solubility (McIlvaine buffers, 24 h shake, UPLC-UV)
Format: physicochemical
Conditions: kinetic from dmso stock
How it was run: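 Compounds from 10 mM DMSO stocks were shaken for 24 h at room temperature in McIlvaine buffers at pH 2.2, 4.5 and 6.8 (2.5% v/v DMSO final), then filtered. Filtrates were quantified by UPLC-UV at 254 nm against a 50:50 acetonitrile/water reference assumed fully dissolved, as a single determination.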

| solubility at 24 h (pH 2.2, aqueous buffer) | solubility at 24 h (pH 4.5, aqueous buffer) | solubility at 24 h (pH 6.8, aqueous buffer) | Structure (SMILES) |
| --- | --- | --- | --- |
| 111 µg/mL (≈ 197 µM) | 85 µg/mL (≈ 151 µM) | 89 µg/mL (≈ 158 µM) | CCOc1c(C(=O)O)cnn1-c1cccc(-c2cccc(Cl)c2OCc2ccc3c(c2)CCN(CCOC)C3)n1 [Compound 58] |
| 110 µg/mL (≈ 180 µM) | 94 µg/mL (≈ 154 µM) | 95 µg/mL (≈ 156 µM) | CCOc1c(C(=O)O)cnn1-c1cccc(-c2cccc(C)c2OCc2ccc3c(c2)CCN(CC2CCOC(C)(C)C2)C3)n1 (stereo not drawn) [Compound 80] |
| 87 µg/mL (≈ 155 µM) | 66 µg/mL (≈ 117 µM) | 77 µg/mL (≈ 137 µM) | CCOc1c(C(=O)O)cnn1-c1cccc(-c2cccc(Cl)c2OCc2ccc3c(c2)CCN(C(C)CO)C3)n1 (stereo not drawn) [Compound 56] |

Further lines, the compound ahead of its results:

| Structure (SMILES) | solubility at 24 h (pH 2.2, aqueous buffer) | solubility at 24 h (pH 4.5, aqueous buffer) | solubility at 24 h (pH 6.8, aqueous buffer) |
| --- | --- | --- | --- |
| COc1c(C(=O)O)cnn1-c1cccc(-c2cccc(C)c2OCc2ccc3c(c2)CCN(C2CCOCC2OC)C3)n1 (stereo not drawn) [Compound 81] | 100 µg/mL (≈ 171 µM) | 84 µg/mL (≈ 144 µM) | 79 µg/mL (≈ 135 µM) |
| CCOc1c(C(=O)O)cnn1-c1cccc(-c2cccc(C)c2OCc2ccc3c(c2)CCN(CC2CC(F)(F)C2)C3)n1 [Compound 96] | 93 µg/mL (≈ 158 µM) | 67 µg/mL (≈ 114 µM) | 75 µg/mL (≈ 127 µM) |
| CCOc1c(C(=O)O)cnn1-c1cccc(-c2cccc(C)c2OCc2ccc3c(c2)CCN(C2CCOC2)C3)n1 (stereo not drawn) [Compound 35] | 93 µg/mL (≈ 168 µM) | 73 µg/mL (≈ 132 µM) | 78 µg/mL (≈ 141 µM) |
| COc1c(C(=O)O)cnn1-c1cccc(-c2cccc(C)c2OCc2ccc3c(c2)CCN(C2CCOCC2C)C3)n1 (stereo not drawn) [Compound 86] | 110 µg/mL (≈ 193 µM) | 90 µg/mL (≈ 158 µM) | 91 µg/mL (≈ 160 µM) |
| COc1c(C(=O)O)cnn1-c1cccc(-c2cccc(C)c2OCc2ccc3c(c2C)CCN(C2CCOC2)C3)n1 (stereo not drawn) [Compound 31] | 110 µg/mL (≈ 198 µM) | 89 µg/mL (≈ 160 µM) | 94 µg/mL (≈ 169 µM) |
| COc1c(C(=O)O)cnn1-c1cccc(-c2cccc(C(F)(F)F)c2OCc2ccc3c(c2C)CCN(C2COC2)C3)n1 [Compound 88] | 90 µg/mL (≈ 151 µM) | 63 µg/mL (≈ 106 µM) | 75 µg/mL (≈ 126 µM) |
